Assay results as given in ChEMBL document CHEMBL4480391, “Discovery and synthesis of sulfur-containing 6-substituted 5,8-dimethoxy-1,4-naphthoquinone oxime derivatives as new and potential anti-MDR cancer agents” (Eur J Med Chem, 2019).

Assays:
[1] = Selectivity index, ratio of IC50 for human HSF cells to IC50 for human HCT15 cells; type: toxicity; conditions: HSF cells versus HCT15 cells, read-out: Ratio IC50
[2] = Cytotoxicity against human HSF cells after 72 hrs by MTT assay; type: cell-based
HCT-15 = assay: Cytotoxicity against human HCT15 cells after 72 hrs by MTT assay; type: functional, cell-based; conditions: HCT-15, 72 h
K562 = assay: Cytotoxicity against human K562 cells after 72 hrs by MTT assay; type: functional, cell-based; conditions: K562, 72 h
MGC-803 = assay: Cytotoxicity against human MGC803 cells after 72 hrs by MTT assay; type: functional, cell-based; conditions: MGC-803, 72 h
[3] = Selectivity ratio of IC50 for human […] cells to IC50 for human Bel7402/5-FU cells; type: functional
Bel7402/5-FU = assay: Cytotoxicity against human Bel7402/5-FU cells after 72 hrs by MTT assay; type: functional, cell-based
NCI/ADR-RES = assay: Cytotoxicity against human MCF7/ADR cells after 72 hrs by MTT assay; type: functional, cell-based
A549 = assay: Cytotoxicity against human A549 cells after 72 hrs by MTT assay; type: functional, cell-based; conditions: A549, 72 h
[4] = Selectivity ratio of IC50 for human A549 cells to IC50 for human A549/TAX cells; type: functional
A549/TR = assay: Cytotoxicity against human A549/TAX cells after 72 hrs by MTT assay; type: functional, cell-based
MCF7 = assay: Cytotoxicity against human MCF7 cells after 72 hrs by MTT assay; type: functional, cell-based; conditions: MCF7, 72 h
[5] = Selectivity ratio of IC50 for human MCF7 cells to IC50 for human MCF7/ADR cells; type: functional
[6] = Cytotoxicity against human […] cells after 72 hrs by MTT assay; type: functional, cell-based

SMILES | selectivity ratio [1] | IC50 [2] | IC50 (HCT-15) | IC50 (K562) | IC50 (MGC-803) | Ratio IC50 [3] | IC50 (Bel7402/5-FU) | IC50 (NCI/ADR-RES) | IC50 (A549) | Ratio IC50 [4] | IC50 (A549/TR) | IC50 (MCF7) | Ratio IC50 [5] | IC50 [6]
CCCCCCC(c1cc(OC)c2c(c1OC)/C(=N/O)C=C/C2=N\O)S(=O)(=O)CCC(C)C (stereo not drawn) | > 6.82 | > 50 µM | 7.33 µM | 4.25 µM | 15.7 µM |  |  |  |  |  |  |  |  | 
CCCCC(SCCC(C)C)c1cc(OC)c2c(c1OC)/C(=N/O)C=C/C2=N\O (stereo not drawn) | > 17.1 | > 50 µM | 2.92 µM | 2.03 µM | 5.96 µM |  |  |  |  |  |  |  |  | 
CCCCCCCCC(SC(=O)c1ccc(C(F)(F)F)cc1)c1cc(OC)c2c(c1OC)/C(=N/O)C=C/C2=N\O (stereo not drawn) | > 13.1 | > 50 µM | 3.82 µM | 4.45 µM | 6.34 µM |  |  |  |  |  |  |  |  | 
CCCCCCCCCCSC(CCCCCCCCCC)c1cc(OC)c2c(c1OC)/C(=N/O)C=C/C2=N\O (stereo not drawn) | > 1.42 | > 50 µM | 35.2 µM | 40.3 µM | > 50 µM |  |  |  |  |  |  |  |  | 
CCC(SC(=O)c1cc(OC)c(OC)c(OC)c1)c1cc(OC)c2c(c1OC)/C(=N/O)C=C/C2=N\O (stereo not drawn) | > 18.2 | > 50 µM | 12.5 µM | 14.4 µM | 30.3 µM |  |  |  |  |  |  |  |  | 
CCCCCCCCCC(SCCC(C)C)c1cc(OC)c2c(c1OC)/C(=N/O)C=C/C2=N\O (stereo not drawn) | > 54.3 | > 50 µM | 0.92 µM | 0.98 µM | 1.54 µM |  |  |  |  |  |  |  |  | 
CCCCCCCCCCC(SCCCCC)c1cc(OC)c2c(c1OC)/C(=N/O)C=C/C2=N\O (stereo not drawn) | > 7.89 | > 50 µM | 6.34 µM | 7.21 µM | 12.1 µM |  |  |  |  |  |  |  |  | 
CCCCCCCCCCC(SC(=O)c1cc(OC)c(OC)c(OC)c1)c1cc(OC)c2c(c1OC)/C(=N/O)C=C/C2=N\O (stereo not drawn) | > 36 | > 50 µM | 1.39 µM | 1.96 µM | 4.66 µM |  |  |  |  |  |  |  |  | 
CCCCCCCCCCCCCCC(SC(=O)c1cc(OC)c(OC)c(OC)c1)c1cc(OC)c2c(c1OC)/C(=N/O)C=C/C2=N\O (stereo not drawn) | > 6.27 | > 50 µM | 7.98 µM | 5.83 µM | 9.68 µM |  |  |  |  |  |  |  |  | 
CCCCCCCCC(SC(=O)c1cccs1)c1cc(OC)c2c(c1OC)/C(=N/O)C=C/C2=N\O (stereo not drawn) | > 41 | > 50 µM | 1.22 µM | 0.95 µM | 3.71 µM |  |  |  |  |  |  |  |  | 
CCCCCCC(SC(=O)c1cc(OC)c(OC)c(OC)c1)c1cc(OC)c2c(c1OC)/C(=N/O)C=C/C2=N\O (stereo not drawn) | > 22.6 | > 50 µM | 2.21 µM | 1.52 µM | 4.92 µM |  |  |  |  |  |  |  |  | 
CCCCCCCCCCCCC(SC(=O)c1cc(OC)c(OC)c(OC)c1)c1cc(OC)c2c(c1OC)/C(=N/O)C=C/C2=N\O (stereo not drawn) | > 7.85 | > 50 µM | 5.42 µM | 4.41 µM | 7.59 µM |  |  |  |  |  |  |  |  | 
CCCCCCCCCCCCCCC(c1cc(OC)c2c(c1OC)/C(=N/O)C=C/C2=N\O)S(=O)(=O)CCC(C)C (stereo not drawn) | > 7.44 | > 50 µM | 2.74 µM | 1.56 µM | 3.53 µM |  |  |  |  |  |  |  |  | 
CC(=O)O[C@H]1C(=O)[C@@]2(C)[C@H]([C@H](OC(=O)c3ccccc3)[C@]3(O)C[C@H](OC(=O)[C@H](O)[C@@H](NC(=O)c4ccccc4)c4ccccc4)C(C)=C1C3(C)C)[C@]1(OC(C)=O)CO[C@@H]1C[C@@H]2O [PACLITAXEL] |  |  |  |  |  | 0.06 | 10.5 µM | 17.7 µM | 0.54 µM | 0.02 | 24.5 µM | 0.47 µM | 0.03 | 0.65 µM
CCCCCCCCC(SC(=O)c1ccco1)c1cc(OC)c2c(c1OC)/C(=N/O)C=C/C2=N\O (stereo not drawn) | > 20.7 | > 50 µM | 2.42 µM | 1.38 µM | 5.26 µM |  |  |  |  |  |  |  |  | 
CCCCCCCCC(c1cc(OC)c2c(c1OC)/C(=N/O)C=C/C2=N\O)S(=O)(=O)CCC(C)C (stereo not drawn) | > 12.6 | > 50 µM | 3.89 µM | 1.29 µM | 7.82 µM |  |  |  |  |  |  |  |  | 
CCCCCCC(SCCC(C)C)c1cc(OC)c2c(c1OC)/C(=N/O)C=C/C2=N\O (stereo not drawn) | > 48.1 | > 50 µM | 1.04 µM | 1.28 µM | 1.9 µM |  |  |  |  |  |  |  |  | 
CCCCCCCCC(SCCCCCC)c1cc(OC)c2c(c1OC)/C(=N/O)C=C/C2=N\O (stereo not drawn) | > 46.3 | > 50 µM | 1.08 µM | 1.14 µM | 1.91 µM |  |  |  |  |  |  |  |  | 
COc1cccc2c1C(=O)c1c(O)c3c(c(O)c1C2=O)C[C@@](O)(C(=O)CO)C[C@@H]3O[C@H]1C[C@H](N)[C@H](O)[C@H](C)O1.Cl [DOXORUBICIN HYDROCHLORIDE] |  |  |  |  |  | 0.12 | 11 µM | 39.5 µM |  | 0.04 | 42.6 µM | 0.42 µM | 0.01 | 1.32 µM
CCCCCCCCCCCCCCC(SCCC(C)C)c1cc(OC)c2c(c1OC)/C(=N/O)C=C/C2=N\O (stereo not drawn) | > 2.22 | > 50 µM | 22.5 µM | 25.7 µM | 38.2 µM |  |  |  |  |  |  |  |  | 
CCCCCCCCC(SCC)c1cc(OC)c2c(c1OC)/C(=N/O)C=C/C2=N\O (stereo not drawn) | > 21.6 | > 50 µM | 2.32 µM | 2.71 µM | 4.39 µM |  |  |  |  |  |  |  |  | 
CCC(SCCC(C)C)c1cc(OC)c2c(c1OC)/C(=N/O)C=C/C2=N\O (stereo not drawn) | > 22.4 | > 50 µM | 5.23 µM | 3.28 µM | 10.4 µM |  |  |  |  |  |  |  |  | 
CCCCC(SC(=O)c1cc(OC)c(OC)c(OC)c1)c1cc(OC)c2c(c1OC)/C(=N/O)C=C/C2=N\O (stereo not drawn) | > 6.47 | > 50 µM | 7.73 µM | 6.35 µM | 14.7 µM |  |  |  |  |  |  |  |  | 
CC(C)=CC[C@@H](O)C1=CC(=O)c2c(O)ccc(O)c2C1=O [SHIKONIN] | 1.45 | 1.25 µM |  | 1.02 µM |  |  |  |  |  |  |  |  |  | 
O=c1[nH]cc(F)c(=O)[nH]1 [FLUOROURACIL] | > 6.64 | > 50 µM |  | 12.2 µM | > 50 µM | 0.02 | 936 µM | 513 µM | 28.6 µM | 0.26 | 112 µM | 26.6 µM | 0.05 | 22.9 µM
CCCCCCCCCCC(SCCC(C)C)c1cc(OC)c2c(c1OC)/C(=N/O)C=C/C2=N\O (stereo not drawn) | > 10.5 | > 50 µM | 4.75 µM | 5.49 µM | 8.91 µM |  |  |  |  |  |  |  |  | 
CCCCCCCCCCCCC(SCCC(C)C)c1cc(OC)c2c(c1OC)/C(=N/O)C=C/C2=N\O (stereo not drawn) | > 3.86 | > 50 µM | 13 µM | 10.1 µM | 17.4 µM |  |  |  |  |  |  |  |  | 
CCCCCCCCCCC(SCCCCCC)c1cc(OC)c2c(c1OC)/C(=N/O)C=C/C2=N\O (stereo not drawn) | > 4.86 | > 50 µM | 10.3 µM | 10.8 µM | 18.5 µM |  |  |  |  |  |  |  |  | 
CCCCCCCCCCC(SCC)c1cc(OC)c2c(c1OC)/C(=N/O)C=C/C2=N\O (stereo not drawn) | > 56.2 | > 50 µM | 0.89 µM | 1.05 µM | 1.87 µM |  |  |  |  |  |  |  |  | 
